Consider one molecule from patent US20260069606A1, “Oxidative Stress and Diabetes Treatment with Cobinamide” (The Regents of the University of California, priority 2022, published 2026).

The nature of data set [1]: Reaction with superoxide, spin trap DMPO / EPR. The format is biochemical. The procedure: The reaction of cobinamide with O2·^− was studied in two different systems, generating O2·^− using a hypoxanthine-xanthine oxidase system.
The second system contained 1 mM hypoxanthine, 0.04 U xanthine oxidase, and 0.26 M DMPO in phosphate-buffered saline, pH 7.4 (PBS). Samples were transferred to a capillary tube, and introduced into the EPR cavity of a Magnettech MiniScope MS5000. DMPO-OH signals arising from the DMPO-OOH spin adduct were measured at 37° C. for 5 min. The area under the DMPO-OOH peak was calculated using Origin 2022b software. To avoid variability across runs, signal amplitudes were normalized to the intensity of simultaneously recorded Mn reference signals originating from ZnS:Mn^2+ fixed within the EPR cavity.
In both systems, the experiments were conducted in the absence and presence of the indicated concentrations of Cbi(III) or Chi(II) 65.
The reaction of Chi(III) with O2·^− was also measured using the spin-trap DMPO, which yields a distinctive electron paramagnetic resonance (EPR) spectrum on reacting with O2·^−. Sub-micromolar concentrations of cobinamide reduced the EPR signal in a dose-dependent fashion, yielding an apparent rate constant of 7.5×10^7 M^−1 s^−1 for the reaction of Chi(III) with O2·^− (FIG. 1B).

Data set [2] in a line: Reaction with hydrogen peroxide, H2O2-specific electrode. The format is biochemical. The protocol: FIGS. 2A-2F. Cobinamide Functions as a Catalase Mimetic and Reacts with Peroxynitrite. […]. Hydrogen peroxide (final concentration 50 μM) was added to solutions containing increasing concentrations of Chi(III) (FIG. 2A) or Chi(II) (FIG. 2C), and the H2O2 concentration was measured over time using a H2O2-specific electrode. The log of the velocity in the presence of Chi(III) (FIG. 2B) or Chi(II) (v) (FIG. 2D) over the velocity in their absence (Vo) is plotted against the log of their concentrations at 20 min over their concentrations at zero time. These plots yield a reaction order with respect to Chi(III) and Cbi(II) of 0.7. The experiments were repeated three times with similar results. Dotted lines show 95% confidence intervals. FIG. 2E. […] The Chi(III) spectra are slightly different from those shown in FIG. 1G because at pH 11, dihydroxo-cobinamide is generated, whereas at pH 7.1, aquohydroxo-cobinamide is the predominant species. The spectra of aquohydroxo- and dihydroxo-cobinamide are known to be different^65. FIG. 2F. Varying concentrations of Chi(II) from 1 to 10 μM were mixed with 10 μM peroxynitrite in a stopped-flow instrument, and absorption at 315 nm was monitored for 0.5 sec. The results for 5 μM Cbi(II) are shown; red circles are the observed data, and the black line is a two-phase non-linear regression curve generated by Prism 7.04 software. […] The experiment was repeated three times with similar results. Dotted lines show 95% confidence intervals.
Table I. Reaction Rates of Cobinamide (Cbi), Cobalamin, Imisopasem, and MnTBAP with Reactive Oxygen and Nitrogen Species. Reactions of the indicated compounds with O2·^−, ONOO^−, and ·NO are all second order reactions with rate constants in units of M^−1 s^−1. The reactions of Cbi(III) and Cbi(II) with H2O2 are third order with rate constant units of M^−2 s^−1. Chi(II) and cobalamin(II) bind nitric oxide, so a Ka is shown in units of M^−1. For the new data presented in this study, rate constants were measured for O2·^− using a hypoxanthine-xanthine oxidase-cytochrome c system, for H2O2 using a H2O2-specific sensor (World Precision Instruments), and for ONOO^− using a stopped-flow instrument. Published rate constants for Cu/Zn and Mn superoxide dismutases (SOD) and catalase are shown for reference.^a,b Letters and numbers in parenthesis refer to footnotes and references, respectively.
Both Cbi(III) and Chi(II) react with H2O2, and the reaction was essentially first order with respect to Cbi(III) and Cbi(II) (FIG. 2A-D), and second order with respect to H2O2 for both cobinamide species. […]

The subject of data set [3] is Jun N-terminal kinase (JNK) phosphorylation in H9c2 cells. Put plainly: H2O2-induced JNK phosphorylation, immunoblotting. The format is cell-based, rat. From the text:
(§1) FIGS. 3A-3H. […] FIGS. 3A-3B. […] FIG. 3A. […] FIG. 3B. […] FIGS. 3C-3D. […] FIG. 3D. […] FIGS. 3E-3F. […] FIG. 3E. Representative blots are shown. […] FIG. 3F. […] FIG. 3G. […] FIG. 3H.
(A western blot detects proteins with antibodies after separation by electrophoresis.)

The test system of data set [4] is COS-7 cells. The procedure: as §1
Finally, whether cobinamide could alleviate the effects of oxidative stress induced by yet another mechanism in a different cell type was tested using paraquat-treated COS-7 cells. Paraquat generates O2·^− through a redox cycling mechanism and increases both intracellular O2·^− and H2O2^42.

The subject of data set [5] is D. melanogaster. Put plainly: Survival of fruit flies during paraquat poisoning. The settings on record: 20 mM paraquat with 0.8 mM drug in food, over 7 d. The format is in vivo.
Method: The number of live flies was counted each day for 7 d. The experiment was repeated seven times, for a total of 70 flies per condition. The percent surviving flies was calculated; error bars represent standard deviations and are shown in one direction only for sake of clarity. […] Chi, cobinamide in Panel A and histidyl-cobinamide in Panels B-K; Imp, imisopasem; MnTP, MnTBAP; CbL, cobalamin; DNPH, 2,4-dinitrophenylhydrazine; ND, non-diabetic; D, diabetic; Veh, vehicle.
To test cobinamide in a whole animal, D. melanogaster was selected for initial studies, and oxidative stressed was increased in the files by administering paraquat in their food. Cobinamide was again compared to imisopasem, MnTBAP, and hydroxocobalamin, all administered in food.
Data set [6] can be described thus: Tolerability in non-diabetic and streptozotocin-diabetic mice (weight, liver and renal function). The format is in vivo. The text has this:
The water was replenished twice a week.
Over the three-month treatment period, the non-diabetic mice gained an average of 4.1±0.8 g. while the diabetic mice lost an average of 0.3 g, with wide variation in weight change among the latter mice.

The conditions of data set [7]: mouse, in vivo.
Method: It seemed possible, therefore, that the cobinamide administered to the mice could have increased their blood pressure, since ·NO is a potent vasodilator. Because diabetes can increase blood pressure, these studies were performed on a parallel set of non-diabetic mice of the same strain and sex and using the same concentration of histidyl-cobinamide in the drinking water as in the above-described studies.
For data set [8] the following is noted: mice, same amount of cobinamide for six months; cited from earlier work.

A value given as a limit tells only on which side of the number the result lay.

With `C/C1=C2/[N-][C@H]([C@H](CC(N)=O)[C@@]2(C)CCC(=O)NC[C@@H](C)O)[C@]2(C)N=C(/C(C)=C3N=C(/C=C4N=C1[C@@H](CCC(N)=O)C\4(C)C)[C@@H](CCC(N)=O)[C@]\3(C)CC(N)=O)[C@@H](CCC(N)=O)[C@]2(C)CC(N)=O.[Co+3]` [cobinamide, aquohydroxo-cobinamide], the “Apparent rate constant, reaction with O2·^−” value in data set [1] is 7.5e+07 M⁻¹ s⁻¹. Moreover, the “Reaction order with respect to the cobinamide species in the reaction with H2O2” value in data set [2] (50 μM H2O2) was determined as 0.7. For the same molecule, in data set [2] (third order, H2O2-specific sensor, new data of this study, listed as Cbi(III)), the “Apparent rate constant, reaction with hydrogen peroxide (H2O2)” value is on record as 8.0 × 10^2 M^−2 s^−1. Further, the “JNK phosphorylation in H2O2-treated cells” value in data set [3] (H9c2, 100 μM H2O2 30 min, drugs at 100 μM) is “reduced JNK phosphorylation to a level that was indistinguishable from vehicle-treated cells”. In data set [3] (H9c2, drug alone), the “JNK phosphorylation or total cellular JNK in the absence of H2O2” value is recorded as “neither Cbi(III), Cbi(II) nor the other three drugs affected JNK phosphorylation”. The “Cell growth of paraquat-treated cells” value in data set [4] (COS-7, 1 mM paraquat 3 h, 100 μM drug, counted 48 h later) is recorded as ~80 % of the control value. Moreover, the “Effect on cell growth, drug alone” value in data set [4] (COS-7, no paraquat) is on record as “no effect on cell growth”. In addition, the “Mortality of paraquat-exposed flies” value in data set [5] is reported as below 30%. For the same molecule, in data set [6] (mouse, in vivo), the “Average weight gain of cobinamide-treated diabetic mice” value is 0.63 g; the Effect on weight result was “did not significantly affect weight”; the “Liver function and renal function tests” value is listed as “no effect”. For the same molecule, in data set [6] (non-diabetic and diabetic mice, three months in drinking water), the Tolerability result is recorded as “well tolerated”. In data set [7], the Blood pressure entry is “no change in blood pressure”. The Hematological parameters result in data set [8] is reported as “did not affect hematological parameters”.
